Data on 4 molecules can be found in patent publication US20240383873A1, “PESTICIDALLY ACTIVE CYCLIC AMINE COMPOUNDS” (SYNGENTA CROP PROTECTION AG, priority 2021, published 2024).

Molecules are shown by their SMILES. A value given as a limit tells only on which side of the number the result lay.

This assay deals with Tetranychus Urticae (Two-Spotted Spider Mite). In words: Tetranychus urticae (two-spotted spider mite): feeding/contact activity. The assay is classed as in vivo. The settings on record: foliar, 192 h, application rate of 200 ppm, bean leaf discs sprayed, mixed population (mobile stages), 8 days after infestation. The procedure: Example B1: Tetranychus Urticae (Two-Spotted Spider Mite): Feeding/Contact Activity
Bean leaf discs on agar in 24-well microtiter plates were sprayed with aqueous test solutions prepared from 10'000 ppm DMSO stock solutions. After drying the leaf discs were infested with a mite population of mixed ages. The samples were assessed for mortality on mixed population (mobile stages) 8 days after infestation.
The molecule `CNS(=O)(=O)C1CCN(C(=O)c2cc(C#N)c(OCc3cc(C(F)(F)F)ccc3F)nc2C(F)(F)F)CC1` [Compound P1.1, 1-[5-cyano-6-[[2-fluoro-5-(trifluoromethyl)phenyl]methoxy]-2-(trifluoromethyl)pyridine-3-carbonyl]-N-methyl-piperidine-4-sulfonamide] yielded a mortality at 200 ppm of at least 80%.
On to `CN(C)S(=O)(=O)C1CCN(C(=O)c2cc(C#N)c(OCc3ccc4c(c3)OC(F)(F)O4)nc2C(F)(F)F)CC1` [Compound P1.24, 1-[5-Cyano-6-[(2,2-difluoro-1,3-benzodioxol-5-yl)methoxy]-2-(trifluoromethyl)pyridine-3-carbonyl]-N,N-dimethyl-piperidine-4-sulfonamide], for which the mortality at 200 ppm is at least 80%.
`CN(C)C(=O)CC1CCN(C(=O)c2cc(C#N)c(OCc3cc(C(F)(F)F)ccc3F)nc2C(F)(F)F)CC1` [Compound P1.37, 2-[1-[5-Cyano-6-[[2-fluoro-5-(trifluoromethyl)phenyl]methoxy]-2-(trifluoromethyl)pyridine-3-carbonyl]-4-piperidyl]-N,N-dimethyl-acetamide]: the mortality at 200 ppm is at least 80%.
Consider `CN(C)C(=O)CN1CCN(C(=O)c2cc(C#N)c(OCc3cc(C(F)(F)F)ccc3F)nc2C(F)(F)F)CC1` [Compound P2.6, 2-[4-[5-Cyano-6-[[2-fluoro-5-(trifluoromethyl)phenyl]methoxy]-2-(trifluoromethyl)pyridine-3-carbonyl]piperazin-1-yl]-N,N-dimethyl-acetamide], for which the mortality at 200 ppm was at least 80%.

In general, mortality refers to the percentage killed. Low readings indicate more survivors, high ones fewer survivors.
